Values after ≈ are worked out from the molar mass of the structure shown. Where two headings read alike, the source gives them in different places. Each block holds one molecule with its values, some of them ahead of it.
Tests used:
Assay in all cases: MIC (Minimum Inhibitory Concentration)
Assay type in all cases: cell-based
Pasteurella multocida = conditions: read-out: MIC values
Excerpt: (§1) In addition they may be used for combatting plant diseases, in particular as fungicides. A list of MIC (Minimum Inhibitory Concentration) values for a number of microorganisms is listed herebelow. The figures in the column headings refer to the compounds prepared according to the experimental examples in comparison with the spectrum of 1-[2-(2,4-dichlorophenyl)-2-{(2,4-dichlorophenyl)-methoxy} -ethyl7-1H-imidazole (better known under the name of miconazole, c.f. Merck Index 9th Ed. page 6047) or natamycin (pimaricin, c.f. Merck Index 9th Ed. page 7233).

[1] = tested on: Streptococcus haemolyticus; conditions: read-out: MIC values
Excerpt: as §1

Trichophyton equinum = tested on: Trichophyton equinum
Excerpt: as §1

Candida albicans = tested on: Candida albicans
Excerpt: as §1

Trichophyton rubrum = tested on: Trichophyton rubrum
Excerpt: as §1

Trichophyton quickeaneum = Trichophyton quickeaneum A 2040; read-out: MIC values
Excerpt: as §1

Trichophyton violoceum = Trichophyton violoceum 442-62; read-out: MIC values
Excerpt: as §1

Trichophyton tonsurans = Trichophyton tonsurans 561-50; read-out: MIC values
Excerpt: as §1

[2] = tested on: Trichophyton mentagrophytus
Excerpt: as §1

[3] = tested on: Trichophyton schoenleinii; conditions: Trichophyton schoenleinii 435-63; read-out: MIC values
Excerpt: as §1

[4] = Streptococcus haemolyticus A 1088
[5] = Trichophyton equinum 182-76, read-out: MIC values
[6] = Trichophyton equinum 856-71, read-out: MIC values
[7] = Candida albicans A 7, read-out: MIC values
[8] = Candida albicans A 3140, read-out: MIC values
[9] = Candida albicans A 3141, read-out: MIC values
[10] = Candida albicans A 3142, read-out: MIC values
[11] = Candida albicans A 3143, read-out: MIC values
[12] = Candida albicans A 3144, read-out: MIC values
[13] = Candida albicans A 3145, read-out: MIC values
[14] = Candida albicans A 3165, read-out: MIC values
[15] = Candida albicans A 3166, read-out: MIC values
[16] = Candida albicans A 3167, read-out: MIC values
[17] = Candida albicans A 3168, read-out: MIC values
[18] = Candida albicans A 3169, read-out: MIC values
[19] = Candida albicans A 3171, read-out: MIC values
[20] = Candida albicans A 3184, read-out: MIC values
[21] = Candida albicans A 3190, read-out: MIC values
[22] = Candida albicans A 3191, read-out: MIC values
[23] = Candida albicans A 3192, read-out: MIC values
[24] = Candida albicans A 3194, read-out: MIC values
[25] = Candida albicans A 3196, read-out: MIC values
[26] = Trichophyton rubrum 218-65, read-out: MIC values
[27] = Trichophyton rubrum 494-62, read-out: MIC values
[28] = Trichophyton rubrum A 810, read-out: MIC values
[29] = Trichophyton mentagrophytus 367-68, read-out: MIC values
[30] = Trichophyton mentagrophytus 421-67, read-out: MIC values
[31] = Trichophyton mentagrophytus A 3252, read-out: MIC values
[32] = Trichophyton mentagrophytus R 177, read-out: MIC values
[33] = Trichophyton mentagrophytus R 178, read-out: MIC values
[34] = Trichophyton mentagrophytus RRL 305, read-out: MIC values

MIC (Pasteurella multocida; Pasteurella multocida A 723): 3 µg/mL (≈ 10.1 µM)
MIC (Trichophyton equinum; [5]): 12.5 µg/mL (≈ 42 µM)
MIC (Trichophyton equinum; [6]): 6 µg/mL (≈ 20.2 µM)
MIC (Candida albicans; [7]): 3 µg/mL (≈ 10.1 µM)
MIC (Candida albicans; [8]): 6 µg/mL (≈ 20.2 µM)
MIC (Candida albicans; [9]): 6 µg/mL (≈ 20.2 µM)
MIC (Candida albicans; [10]): 6 µg/mL (≈ 20.2 µM)
MIC (Candida albicans; [11]): 6 µg/mL (≈ 20.2 µM)
MIC (Candida albicans; [12]): 3 µg/mL (≈ 10.1 µM)
MIC (Candida albicans; [13]): 3 µg/mL (≈ 10.1 µM)
MIC (Candida albicans; [14]): 3 µg/mL (≈ 10.1 µM)
MIC (Candida albicans; [15]): 3 µg/mL (≈ 10.1 µM)
MIC (Candida albicans; [16]): 3 µg/mL (≈ 10.1 µM)
MIC (Candida albicans; [17]): 6 µg/mL (≈ 20.2 µM)
MIC (Candida albicans; [18]): 6 µg/mL (≈ 20.2 µM)
MIC (Candida albicans; [19]): 6 µg/mL (≈ 20.2 µM)
MIC (Candida albicans; [20]): 6 µg/mL (≈ 20.2 µM)
MIC (Candida albicans; [21]): 6 µg/mL (≈ 20.2 µM)
MIC (Candida albicans; [22]): 6 µg/mL (≈ 20.2 µM)
MIC (Candida albicans; [23]): 3 µg/mL (≈ 10.1 µM)
MIC (Candida albicans; [24]): 3 µg/mL (≈ 10.1 µM)
MIC (Candida albicans; [25]): 6 µg/mL (≈ 20.2 µM)
MIC (Trichophyton rubrum; [26]): 3 µg/mL (≈ 10.1 µM)
MIC (Trichophyton rubrum; [27]): 6 µg/mL (≈ 20.2 µM)
MIC (Trichophyton rubrum; [28]): 3 µg/mL (≈ 10.1 µM)
MIC (Trichophyton quickeaneum): 6 µg/mL (≈ 20.2 µM)
MIC (Trichophyton violoceum): 3 µg/mL (≈ 10.1 µM)
MIC (Trichophyton tonsurans): 0.1 µg/mL (≈ 0.336 µM)
MIC [2, 29]: 12.5 µg/mL (≈ 42 µM)
MIC [2, 30]: 6 µg/mL (≈ 20.2 µM)
MIC [2, 31]: 6 µg/mL (≈ 20.2 µM)
MIC [2, 32]: 3 µg/mL (≈ 10.1 µM)
MIC [2, 33]: 6 µg/mL (≈ 20.2 µM)
MIC [2, 34]: 25 µg/mL (≈ 84.1 µM)
MIC [3]: 1.5 µg/mL (≈ 5.04 µM)
Compound: [C-]#[N+]C(=C(C)c1ccccc1)S(=O)(=O)c1ccc(C)cc1 [Example 12, 2-phenyl-1-isocyano-1-(4-toluenesulphonyl)-1-propene]
MIC [1, 4]: 50 µg/mL (≈ 168 µM)

MIC (Pasteurella multocida; Pasteurella multocida A 723): 3 µg/mL (≈ 10.2 µM)
MIC (Trichophyton equinum; [5]): 6 µg/mL (≈ 20.4 µM)
MIC (Trichophyton equinum; [6]): 12.5 µg/mL (≈ 42.6 µM)
MIC (Candida albicans; [7]): 3 µg/mL (≈ 10.2 µM)
MIC (Candida albicans; [8]): 3 µg/mL (≈ 10.2 µM)
MIC (Candida albicans; [9]): 3 µg/mL (≈ 10.2 µM)
MIC (Candida albicans; [10]): 3 µg/mL (≈ 10.2 µM)
MIC (Candida albicans; [11]): 3 µg/mL (≈ 10.2 µM)
MIC (Candida albicans; [12]): 6 µg/mL (≈ 20.4 µM)
MIC (Candida albicans; [13]): 6 µg/mL (≈ 20.4 µM)
MIC (Candida albicans; [14]): 3 µg/mL (≈ 10.2 µM)
MIC (Candida albicans; [15]): 3 µg/mL (≈ 10.2 µM)
MIC (Candida albicans; [16]): 3 µg/mL (≈ 10.2 µM)
MIC (Candida albicans; [17]): 3 µg/mL (≈ 10.2 µM)
MIC (Candida albicans; [18]): 3 µg/mL (≈ 10.2 µM)
MIC (Candida albicans; [19]): 3 µg/mL (≈ 10.2 µM)
MIC (Candida albicans; [20]): 3 µg/mL (≈ 10.2 µM)
MIC (Candida albicans; [21]): 3 µg/mL (≈ 10.2 µM)
MIC (Candida albicans; [22]): 6 µg/mL (≈ 20.4 µM)
MIC (Candida albicans; [23]): 3 µg/mL (≈ 10.2 µM)
MIC (Candida albicans; [24]): 3 µg/mL (≈ 10.2 µM)
MIC (Candida albicans; [25]): 3 µg/mL (≈ 10.2 µM)
MIC (Trichophyton rubrum; [26]): 1.5 µg/mL (≈ 5.11 µM)
MIC (Trichophyton rubrum; [27]): 12.5 µg/mL (≈ 42.6 µM)
MIC (Trichophyton rubrum; [28]): 1.5 µg/mL (≈ 5.11 µM)
MIC (Trichophyton quickeaneum): 6 µg/mL (≈ 20.4 µM)
MIC (Trichophyton violoceum): 3 µg/mL (≈ 10.2 µM)
MIC (Trichophyton tonsurans): 0.8 µg/mL (≈ 2.73 µM)
MIC [2, 29]: 6 µg/mL (≈ 20.4 µM)
MIC [2, 30]: 6 µg/mL (≈ 20.4 µM)
MIC [2, 31]: 12.5 µg/mL (≈ 42.6 µM)
MIC [2, 32]: 6 µg/mL (≈ 20.4 µM)
MIC [2, 33]: 12.5 µg/mL (≈ 42.6 µM)
MIC [2, 34]: 12.5 µg/mL (≈ 42.6 µM)
MIC [3]: 1.5 µg/mL (≈ 5.11 µM)
Compound: [C-]#[N+]C(C1=CCSCC1)S(=O)(=O)c1ccc(C)cc1 (stereo not drawn) [Example 16b, a-(3,4-dehydrothian-4-yl)-a-(4-toluenesulphonyl)-methylisocyanide]
MIC [1, 4]: 50 µg/mL (≈ 170 µM)

Compound: [C-]#[N+]C(=C1CCCCCC1)S(=O)(=O)c1ccc(C)cc1 [Example 18a, a-cycloheptylidene-a-(4-toluenesulphonyl)-methylisocyanide]
MIC (Pasteurella multocida; Pasteurella multocida): 20 µg/mL (≈ 69.1 µM)
MIC ([1]; Streptococcus): 10 µg/mL (≈ 34.6 µM)
MIC (Candida albicans; read-out: MIC values, Candida albicans A 7): 1.5 µg/mL (≈ 5.18 µM)
MIC (Candida albicans; read-out: MIC values, Candida albicans A 3140): 1.5 µg/mL (≈ 5.18 µM)
MIC (Candida albicans; read-out: MIC values, Candida albicans A 3141): 3 µg/mL (≈ 10.4 µM)
MIC (Candida albicans; read-out: MIC values, Candida albicans A 3142): 1.5 µg/mL (≈ 5.18 µM)
MIC (Candida albicans; read-out: MIC values, Candida albicans A 3143): 1.5 µg/mL (≈ 5.18 µM)
MIC (Candida albicans; read-out: MIC values, Candida albicans A 3144): 3 µg/mL (≈ 10.4 µM)
MIC (Candida albicans; read-out: MIC values, Candida albicans A 3145): 3 µg/mL (≈ 10.4 µM)
MIC (Candida albicans; read-out: MIC values, Candida albicans A 3165): 1.5 µg/mL (≈ 5.18 µM)
MIC (Candida albicans; read-out: MIC values, Candida albicans A 3166): 3 µg/mL (≈ 10.4 µM)
MIC (Candida albicans; read-out: MIC values, Candida albicans A 3167): 0.75 µg/mL (≈ 2.59 µM)
MIC (Candida albicans; read-out: MIC values, Candida albicans A 3168): 0.75 µg/mL (≈ 2.59 µM)
MIC (Candida albicans; read-out: MIC values, Candida albicans A 3169): 3 µg/mL (≈ 10.4 µM)
MIC (Candida albicans; read-out: MIC values, Candida albicans A 3171): 1.5 µg/mL (≈ 5.18 µM)
MIC (Candida albicans; read-out: MIC values, Candida albicans A 3184): 3 µg/mL (≈ 10.4 µM)
MIC (Candida albicans; read-out: MIC values, Candida albicans A 3190): 3 µg/mL (≈ 10.4 µM)
MIC (Candida albicans; read-out: MIC values, Candida albicans A 3191): 3 µg/mL (≈ 10.4 µM)
MIC (Candida albicans; read-out: MIC values, Candida albicans A 3192): 1.5 µg/mL (≈ 5.18 µM)
MIC (Candida albicans; read-out: MIC values, Candida albicans A 3194): 1.5 µg/mL (≈ 5.18 µM)
MIC (Candida albicans; read-out: MIC values, Candida albicans A 3196): 3 µg/mL (≈ 10.4 µM)
